In patent US20120245184A1 (Aderans Research Institute, Inc., priority 2006, published 2012):
Where a name gives a salt, the structure may show the parent alone.

Experiments:
[1] = tested on: sonic hedgehog pathway; assay: Hedgehog reporter assay (gli-luciferase) in TM3 cells; format: cell-based, mouse; settings: TM3 mouse Leydig cells, gli-luciferase reporter; read-out: TM3 Avg. EC50
From the text: (§1) Mouse (TM3: mouse Leydig cells; S12: mouse embryonic mesenchymal cells) and human (Daoy: human medulloblastoma cell; HepM: human embryonic palatal mesenchymal cell) cell lines are used to screen small molecules for their ability to modulate the activity of the sonic hedgehog pathway (Table 1, Table 2, and Table 3). Stable hedgehog pathway reporter cell lines are established by specific antibiotic selection following transfection of a reporter plasmid containing a luciferase gene located directly downstream from the gli promoter. Consequently, any observable changes in cellular luciferase activity may be attributed to changes in sonic hedgehog pathway activity in mouse and human cells, respectively, since gli is the major by-product of this pathway. To calculate activity, we generate an eleven point dose curve for each compound using 1:3 dilutions in 96 well assay plates. Each plate tested also contains low and high control to establish maximal pathway activation so to establish/compare a percentage activation of each tested compound (AMAX) on respective plates.
(§2) Stable hedgehog pathway reporter cell lines are established following specific antibiotic selection following transfection of a reporter plasmid
(§3) In short, typically cells are plated in MicroTiter-plates at 10,000-20,000 cells per well, in growth media (containing 10%-20% FBS). After 48-72 hrs (HGL and DGL respectively) the media in the assay plates is switched to low-serum containing media (0.5% FBS). At that time compounds are added (at 1-5 μM) to the assay plates, in the presence or absence of hedgehog protein (octyl-modified version; 1-5 ng/ml). After another 24 hrs of incubation, the media from the assay plates is discarded and replaced with luciferase assay-mix. Subsequently, plates are incubated at RT for ˜15-30 mins and then read in a luminometer. [note: addition of the Hedgehog protein, although not critical, will sensitize the assay allowing the identification of weak actives].

[2] = tested on: sonic hedgehog pathway; assay: Hedgehog reporter assay (gli-luciferase) in S12 cells; format: cell-based; settings: S12 mouse embryonic mesenchymal cells
From the text: as §1, with “respective plates. Also we calculate EC50 values, or a concentration where the pathway will be exactly 50% activated, for each tested compound to determine potency. In these cell lines, compounds that register >20% AMAX values are considered active.” for “respective plates.”
as §2, §3

[3] = tested on: sonic hedgehog pathway; assay: Human hedgehog reporter assay HEPM-GliLuc (HGL); format: cell-based; settings: HepM human embryonic palatal mesenchymal cells, gli-luciferase reporter; read-out: HEPM Avg. EC50
From the text: as §1, §2, §3

[4] = tested on: sonic hedgehog pathway; assay: Human hedgehog reporter assay Daoy-GliLuc (DGL); format: cell-based; settings: Daoy human medulloblastoma cells, gli-luciferase reporter
Summary of the method: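 Stable gli-luciferase reporter lines (mouse TM3; human Daoy and HEPM) switched to 0.5% FBS medium, given compounds at 1-5 μM with or without octyl-modified hedgehog protein (1-5 ng/ml) for 24 hrs. Luminescence read; eleven-point 1:3 dose curves, activation expressed as percentage of plate controls (AMAX).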

[5] = read-out: Human Daoy (Gli-Luc) Avg. EC50

Measured: EC50

CN[C@H]1CC[C@H](N(Cc2cc(-c3ccc(N)nc3)ccc2OC)C(=O)c2sc3cccc(F)c3c2Cl)CC1 [362 (R13), 3-Chloro-4-fluoro-benzo[b]thiophene-2-carboxylic acid[5-(6-amino-pyridin-3-yl)-2-methoxy-benzyl]-(4-methylamino-cyclohexyl)-amide dihydrochloride]
< 50 nM: [1] | [2]; read-out: S12 Avg. EC50 | [3] | [4]; read-out: Daoy Avg. EC50

CN[C@H]1CC[C@@H](N(Cc2cc(-c3ccnc(C)c3)ccc2OC)C(=O)C2=C(Cl)c3c(C)ccc(F)c3C2)CC1 [Compound 355]
< 50 nM: [1] | [2]; read-out: S12 Avg. EC50 | [3]

CNC1CCC(N(Cc2cc(-c3ccc(C(=O)N(C)C)cc3)ccc2OC)C(=O)c2sc3ccccc3c2Cl)CC1 (stereo not shown) [Compound 317 (R19), 3-Chloro-benzo[b]thiophene-2-carboxylic acid (4′-dimethylcarbamoyl-4-methoxy-biphenyl-3-ylmethyl)-(4-methylamino-cyclohexyl)-amide hydrochloride]
< 50 nM: [1] | [2]; read-out: S12 Avg. EC50 | [3]

CN[C@H]1CC[C@@H](N(Cc2cc(-c3ccc(CO)cc3)ccc2OC)C(=O)c2sc3c(C)ccc(C)c3c2Cl)CC1 [Compound 338, 3-Chloro-4,7-difluoro-benzo[b]thiophene-2-carboxylic acid(4′-hydroxymethyl-4-methoxy-biphenyl-3-ylmethyl)-(4-methylamino-cyclohexyl)-amide trifluoroacetate]
< 50 nM: [1] | [2]; read-out: S12 Avg. EC50 | [3] | [4]; read-out: Daoy Avg. EC50

CNC1CCC(N(Cc2cc(-c3ccc(C(C)=O)cc3)ccc2OC)C(=O)c2sc3c(F)ccc(F)c3c2Cl)CC1 (stereo not shown) [Compound 332, 3-Chloro-4,7-difluoro-benzo[b]thiophene-2-carboxylic acid (4′-acetyl-4-methoxy-biphenyl-3-ylmethyl)-(4-methylamino-cyclohexyl)-amide hydrochloride]
< 50 nM: [1] | [2]; read-out: S12 Avg. EC50 | [3] | [4]; read-out: Daoy Avg. EC50

CNc1cc(-c2ccc(OC)c(CN(C(=O)c3sc4c(F)ccc(F)c4c3Cl)C3CCC(NC)CC3)c2)ccn1 (stereo not shown) [Compound 357, 3-Chloro-4,7-difluoro-benzo[b]thiophene-2-carboxylic acid[2-methoxy-5-(2-methylamino-pyridin-4-yl)-benzyl]-(4-methylamino-cyclohexyl)-amide bis(trifluoroacetate)]
< 50 nM: [1] | [2]; read-out: S12 Avg. EC50 | [3] | [4]; read-out: Daoy Avg. EC50

CNC1CCC(N(Cc2cc(-c3ccc(NS(C)(=O)=O)nc3)ccc2OC)C(=O)c2sc3c(F)ccc(F)c3c2Cl)CC1 (stereo not shown) [Compound R10, 3-Chloro-4,7-difluoro-benzo[b]thiophene-2-carboxylic acid[5-(6-methanesulfonylamino-pyridin-3-yl)-2-methoxy-benzyl]-(4-methylamino-cyclohexyl)-amide dihydrochloride]
< 50 nM: [1] | [2]; read-out: S12 Avg. EC50 | [3]

CC[C@H]1CC[C@@H](N(Cc2cc(-c3ccc(C)cc3)ccc2OC)C(=O)C2=C(C)c3c(C)ccc(C)c3C2)CC1 [Compound 334, 3-Chloro-4,7-difluoro-benzo[b]thiophene-2-carboxylic acid[2-methoxy-5-(6-methyl-pyridin-3-yl)-benzyl]-(4-methylamino-cyclohexyl)-amide bis(trifluoroacetate)]
< 50 nM: [1] | [2]; read-out: S12 Avg. EC50 | [3] | [4]; read-out: Daoy Avg. EC50

CNC1CCC(N(Cc2cc(-c3ccc(N)nc3)ccc2OC)C(=O)c2sc3ccccc3c2Cl)CC1 (stereo not shown) [Compound 319, 3-Chloro-benzo[b]thiophene-2-carboxylic acid [5-(6-aminopyridin-3-yl)-2-methoxy-benzyl]-(4-methylamino-cyclohexyl)-amide dihydrochloride]
< 50 nM: [1] | [2]; read-out: S12 Avg. EC50 | [3]

CNC1CCC(N(Cc2cc(-c3cccnc3)ccc2OC)C(=O)c2sc3cccc(F)c3c2Cl)CC1 (stereo not shown) [360 (R16), 3-Chloro-4-fluoro-benzo[b]thiophene-2-carboxylic acid (2-methoxy-5-pyridin-3-yl-benzyl)-(4-methylamino-cyclohexyl)-amide dihydrochloride]
< 50 nM: [1] | [2]; read-out: S12 Avg. EC50 | [3] | [4]; read-out: Daoy Avg. EC50

CNC1CCC(N(Cc2cc(-c3ccnc(C(N)=O)c3)ccc2OC)C(=O)c2sc3c(F)ccc(F)c3c2Cl)CC1 (stereo not shown) [Compound 354 (R17), 4-(3-{[(3-Chloro-4,7-difluoro-benzo[b]thiophene-2-carbonyl)-(4-methylamino-cyclohexyl)-amino]-methyl}-4-methoxy-phenyl)-pyridine-2-carboxylic acid amide dihydrochloride]
< 50 nM: [1] | [2]; read-out: S12 Avg. EC50 | [3] | [4]; read-out: Daoy Avg. EC50

CNC1CCC(N(Cc2cc(-c3ccnc(C(=O)OC)c3)ccc2OC)C(=O)c2sc3c(F)ccc(F)c3c2Cl)CC1 (stereo not shown) [Compound R5, Methyl 4-(3-{[(3-chloro-4,7-difluoro-benzo[b]thiophene-2-carbonyl)-(4-methylamino-cyclohexyl)-amino]-methyl}-4-methoxy-phenyl)-pyridine-2-carboxylate]
< 50 nM: [1] | [2]; read-out: S12 Avg. EC50 | [3] | [4]; read-out: Daoy Avg. EC50

CNC1CCC(N(Cc2cc(-c3ccc(CO)cc3)ccc2OC)C(=O)c2sc3ccccc3c2Cl)CC1 (stereo not shown) [Compound 329, 3-Chloro-benzo[b]thiophene-2-carboxylic acid (4′-hydroxymethyl-4-methoxy-biphenyl-3-ylmethyl)-(4-methylamino-cyclohexyl)-amide hydrochloride]
< 50 nM: [1] | [2]; read-out: S12 Avg. EC50 | [3]

CNC1CCC(N(Cc2cc(-c3ccncc3)ccc2O)C(=O)c2sc3c(F)ccc(F)c3c2Cl)CC1 (stereo not shown) [Compound 368, 3-Chloro-4,7-difluoro-benzo[b]thiophene-2-carboxylic acid (2-hydroxy-5-pyridin-4-yl-benzyl)-(4-methylamino-cyclohexyl)-amide dihydrochloride]
< 50 nM: [2]; read-out: S12 Avg. EC50 | [3] | [4]; read-out: Daoy Avg. EC50

CNC1CCC(N(Cc2cc(-c3ccc(C(N)=O)cc3)ccc2OC)C(=O)c2sc3ccccc3c2Cl)CC1 (stereo not shown) [Compound 316, 3-Chloro-benzo[b]thiophene-2-carboxylic acid (4′-carbamoyl-4-methoxy-biphenyl-3-ylmethyl)-(4-methylamino-cyclohexyl)-amide hydrochloride]
< 50 nM: [1] | [2]; read-out: S12 Avg. EC50 | [3]

CNC1CCC(N(Cc2cc(-c3ccnc(F)c3)ccc2OC)C(=O)c2sc3c(F)ccc(F)c3c2Cl)CC1 (stereo not shown) [Compound 384, 3-Chloro-4,7-difluoro-benzo[b]thiophene-2-carboxylic acid[5-(2-fluoro-pyridin-4-yl)-2-methoxy-benzyl]-(4-methylamino-cyclohexyl)-amide]
< 50 nM: [2]; read-out: Mouse S12 Avg. EC50 | [4]; [5]

CN[C@H]1CC[C@H](N(Cc2cc(-c3cccnc3F)ccc2OC)C(=O)c2sc3cccc(F)c3c2Cl)CC1 [Compound 381]
< 50 nM: [2]; read-out: Mouse S12 Avg. EC50 | [4]; [5]

CN[C@H]1CC[C@@H](N(Cc2cc(-c3ccncc3F)ccc2OC)C(=O)c2sc3c(F)ccc(F)c3c2Cl)CC1 [Compound 386, 3-Chloro-4,7-difluoro-benzo[b]thiophene-2-carboxylic acid[5-(3-fluoro-pyridin-4-yl)-2-methoxy-benzyl]-(4-methylamino-cyclohexyl)-amide]
< 50 nM: [2]; read-out: Mouse S12 Avg. EC50 | [4]; [5]

CN[C@H]1CC[C@H](N(Cc2cc(-c3ccc(F)nc3)ccc2OC)C(=O)c2sc3cccc(F)c3c2Cl)CC1 [Compound 382, 3-Chloro-4-fluoro-benzo[b]thiophene-2-carboxylic acid[5-(6-fluoro-pyridin-3-yl)-2-methoxy-benzyl]-(4-methylamino-cyclohexyl)-amide]
< 50 nM: [2]; read-out: Mouse S12 Avg. EC50 | [4]; [5]
